Test results as given in ChEMBL document CHEMBL5729018, “MAPK inhibitors” (2022).
pIC50, pKi: −log10 of the molar value.

How the values were obtained:
[1] = molecular target: T1, Mitogen-activated protein kinase 14 (Homo sapiens, UniProt Q16539); test: Each binding data point was carried out in duplicate or triplicate. Data were recorded in millipolarisation (mP) units and measured at an excitation wavelength of 485 nm and an emission wavelength of 520 nm. Tris(hydroxymethyl)aminomethane (Tris) assay buffer was used in all binding experiments and consisted of 10 mM Tris, 50 nM potassium chloride, and 3.5 mM 3-((3-cholamidopropyl)dimethylammonium)-1-propanesulfonate (Chaps) at pH 8.0.
[2] = molecular target: T1, Mitogen-activated protein kinase 14; test: (§1) Fluorescence polarisation (FP) assay for active p38alpha MARK: FP signals were measured with a PHERAstar microplate reader (BMG Labtech) using black, low-binding half-area 96 well plates (Corning). Each binding data point was carried out in duplicate or triplicate. Data were recorded in millipolarisation (mP) units and measured at an excitation wavelength of 485 nm and an emission wavelength of 520 nm. Tris(hydroxymethyl)aminomethane (Tris) assay buffer was used in all binding experiments and consisted of 10 mM Tris, […], and 3.5 mM 3-((3-cholamidopropyl)dimethylammonium)-1-propanesulfonate (Chaps) at pH 8.0. The recombinant active His-tag p38α MAPK used in the ligand binding assays were prepared as described by Bukhtiyarova et al.
[3] = molecular target: T1, Mitogen-activated protein kinase 14; test: as §1, with “assay:” for “assay for active p38alpha MARK:”, “8.0.” for “8.0. The recombinant active His-tag p38α MAPK used in the ligand binding assays were prepared as described by Bukhtiyarova et al.”

T1 sequence (Q16539 whole entry): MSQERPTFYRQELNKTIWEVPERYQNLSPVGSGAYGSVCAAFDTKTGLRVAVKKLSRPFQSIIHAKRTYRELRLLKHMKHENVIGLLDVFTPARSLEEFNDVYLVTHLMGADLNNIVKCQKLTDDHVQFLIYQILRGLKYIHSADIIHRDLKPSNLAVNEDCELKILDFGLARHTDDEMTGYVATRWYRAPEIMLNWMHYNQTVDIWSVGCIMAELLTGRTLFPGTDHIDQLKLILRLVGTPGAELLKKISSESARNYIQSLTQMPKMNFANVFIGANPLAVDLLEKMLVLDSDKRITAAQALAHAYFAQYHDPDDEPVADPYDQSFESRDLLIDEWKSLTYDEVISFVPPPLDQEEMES

pKi [1]	pKi [2]	pIC50 [3]	Compound
5.68	6.20		OCC#Cc1cc(-c2ccncc2)c(-c2ccc(F)cc2)s1
5.70	6.25	6.80	OCCC#Cc1cc(-c2ccncc2)c(-c2ccc(F)cc2)s1
		7.52	OCCC#Cc1nc(-c2ccc(F)cc2)c(-c2ccncc2)n1CCCc1ccccc1 [RWJ-67657]
